Assay results reported in patent US6368788B1 (priority 1987, dated 2002).
Where two headings read alike, the source gives them in different places. Marks after values point to notes of the source that are not given here.

Columns and labels:
influenza = system: influenza; design: species or system human; settings: in vivo
[1] = with antibiotic therapy
[2] = system: lymphocytes of lymphoid organs; assay: Immune indices (E-RFC, EA-RFC, EAC-RFC) in healthy guinea pigs; type: in vivo; settings: for E-RFC / EA-RFC / EAC-RFC: healthy guinea pigs, 1 mg/kg im daily 5 days, day 10
Experimental: Immune parameters were investigated in healthy male guinea pigs ([…]) following administration of test or control agents. Each test and control group consisted of 10 animals. […] Physiological saline was administered im to the animals of the control group. The affects of these treatments were determined on day 10 (i.e., 5 days after the last injection) by preparing cells from peripheral blood (PBL), thymus (TYM), lymph nodes (LN), spleen (SPL), and red pulp of bone marrow (BM). Cells were tested for antibody Fc receptors (EA-RFC), complement receptors (EAC-RFC), T-lymphocytes, “active” T-lymphocytes (E-RFC), B-lymphocytes (EA-RFC and EAC-RFC; according to the method of Bianco, C., et al., J. Exp. Med. 132(4):702-720 (1970). The results of these analyses are shown in TABLES 53-54, below, where data are expressed either as the number of RFC×10^9 per liter of blood, or RFC×10^3 per milligram (mg) of tissue.
Thymus, left paratracheal lymph node, and spleen were surgically removed, weighed, and homogenized in a glass Dounce homogenizer in Medium 199. Tissue fragments were removed by filtration through a chaperon. Bone marrow cell suspensions were prepared by irrigating the bone marrow canal of the pelvis with Medium 199 and homogenizing the irrigated solution. Suspensions from the different respective sources were purified by centrifuging the different cell samples on different aliquots of δ1.077 Ficoll-Urotrast for 40 minutes at 1500-1800 rpm. The lymphocyte interfaces from the gradients were collected into a siliconized test tube and washed in Medium 199. Residual red cells in the lymphocyte suspensions were lysed using 3% acetic acid in the presence of 0.05% Hessian-violet as a viability marker. Cell concentrations were determined microscopically using a Goryaev counting chamber. Cell concentrations were adjusted to 2.5×10^6/mL.
Ram erythrocytes (E) were washed 4× in saline (2000 rpm/10 min.) and suspended at a final concentration of 1% in Medium 199. For determinations of the percentage of E-rosette forming T-lymphocytes (E-RFC) in a sample, 0.1 mL of a prepared lymphocyte suspension (2.5×10^6/ml) was incubated with 0.1 mL of the 1% ram erythrocyte suspension at 37° C. for 10 min., centrifuged at 800-1000 rpm for 5 min., maintained at 4° C. for 2 hrs., and finally resuspended and counted in a Goryaev chamber. Activated T-lymphocytes (i.e., having increased E-RFC capacity) were determined by mixing the test lymphocyte suspension with E, immediately centrifuging for 5 min. at 800-1000 rpm, resuspending the cells and counting the rosettes formed in a Goryaev chamber.
Antibody-coated rabbit erythrocytes were used for determinations of EA-RFC (i.e., “activated” T-lymphocytes) according to the method of Stadecker, M. J., et al., J. Immunol. 11(6):1834-1837 (1973). Erythrocytes were prepared, incubated with an optimal dilution of anti-rabbit IgG, washed, and prepared as a 1% cell suspension in a manner analogous to those above (E-RFC, supra). EA-RFC assays were performed in a manner analogous to the description above, i.e., E-RFC, supra.
Determinations of EAC-RFC (i.e., B-lymphocytes) were performed according to the method described by Bianco, C., et al., J. Exp. Med. 132(4):702-720 (1970).

[3] = DTH sensitivity to tuberculin; type: in vivo, guinea pigs
Experimental: In the second study, affects of L-Glu-L-Trp on DTH sensitivity were investigated in guinea pigs sensitized to tuberculin. L-Glu-L-Trp was administered ip at 10 μg/kg or 1000 μg/kg on the day of an intradermal sensitization with tuberculin antigen.

HIV = assay: HIV-infected individuals: comparative studies with TPI; design: species or system human; settings: in vivo
Experimental: In separate studies, a total of 21 HIV-infected individuals were studied, including full-blown syndrome, prodromal, and pre-AIDS afflicted individuals who were treated with Thympentin. Thympentin and TPI are thymic gland peptide extracts previously disclosed in the scientific literature.

hepatitis B = assay: Children with chronic persistent hepatitis B; type: in vivo, human; design: T-Lymphocytes (E-RFC): unit not given here
Experimental: In accord with a USSR Ministry of Health decision 125 children suffering with chronic persistent hepatitis B were entered into this trial over a two month period. Group 1 consisted of 35 children who received decaris immunomodulatory therapy; Group 2, 38 children who received thymalin treatments; Group 3, […] who received L-Glu-L-Trp; and, Group 4, 32 children who received only conventional symptom specific therapy.
L-Glu-L-Trp was administered at a dose of 2 μg/kg of body mass, im, daily for […], and a repeat (identical) course of treatment was administered 10 days after termination of the first course.

C. albicans = type: in vivo, mice; settings: PDR
[4] = 10 μg/kg ip on day of tuberculin sensitization
[5] = 1000 μg/kg ip on day of tuberculin sensitization
[6] = Non-Responders, After L-Glu-L-Trp (n = 7)
[7] = Responders, L-Glu-L-Trp Therapy (n = 12)

L-Glu-L-Trp
Clinical outcome (influenza): significantly decreased the incidence of sickness in the vaccinated subjects for a period of 12 months
Clinical outcome [1]: accelerated healing of chronic and acute ear infections
Decrease of T-lymphocytes in LN and BM ([2]; 1 mg/kg im, 5 days): 50%
Increase of splenic and thymus T-cells ([2]; 1 mg/kg im, 5 days): 2-9%
E-RFC ([2]; BM): 11.2 ± 2.3* 10^3/mg
EA-RFC ([2]; BM): 25.1 ± 1.9* 10^3/mg
EAC-RFC ([2]; BM): 13.9 ± 2.1 10^3/mg
E-RFC ([2]; LN): 81.4 ± 7.6* 10^3/mg
EA-RFC ([2]; LN): 61.7 ± 8.2 10^3/mg
EAC-RFC ([2]; LN): 173.3 ± 12.7 10^3/mg
E-RFC ([2]; PBL): 1.59 ± 0.78 10^9/L
EA-RFC ([2]; PBL): 0.82 ± 0.09 10^9/L
EAC-RFC ([2]; PBL): 0.79 ± 0.08* 10^9/L
E-RFC ([2]; SPL): 75.9 ± 6.8 10^3/mg
EA-RFC ([2]; SPL): 81.2 ± 7.4* 10^3/mg
EAC-RFC ([2]; SPL): 141.5 ± 22.6 10^3/mg
E-RFC ([2]; TYM): 448.1 ± 51.4 10^3/mg
EA-RFC ([2]; TYM): 542.6 ± 42.3 10^3/mg
EAC-RFC ([2]; TYM): 0 10^3/mg
Increase of complement receptor bearing cells (EAC-RFC) in blood ([2]; guinea pig, in vivo): 2 fold
CD2+ lymphocytes (E-RFC), BM ([2]; treated guinea pigs): 50% ↓ (p < 0.05)
CD2+ lymphocytes (E-RFC), LN ([2]; treated guinea pigs): 32% ↓ (p < 0.05)
CD2+ lymphocytes (E-RFC), Spleen ([2]; treated guinea pigs): ns
CD2+ lymphocytes (E-RFC), Thymus ([2]; treated guinea pigs): ns
Fc-receptor+ lymphocytes (EA-RFC), LN ([2]; treated guinea pigs): ns
Fc-receptor+ lymphocytes (EA-RFC), PBL ([2]; treated guinea pigs): ns
Fc-receptor+ lymphocytes (EA-RFC), Thymus ([2]; treated guinea pigs): ns
Mean Skin Test Diameter ± S.D. Day 10 [3, 4]: 14.4 ± 1.3 mm
Mean Skin Test Diameter ± S.D. Day 20 [3, 4]: 15.1 ± 1.4 mm
Mean Skin Test Diameter ± S.D. Day 10 [3, 5]: 15.2 ± 1.3 mm
Mean Skin Test Diameter ± S.D. Day 20 [3, 5]: 13.9 ± 1.1 mm
DTH response to tuberculin antigen ([3]; day 10 or day 20): statistically significant increase in the DTH response
Comparative effectiveness (HIV): more effective than TPI in restoring normal immunologic indices, T-cell functional activity, and T4/T8 ratios
Percent of Subjects Disease Free at 6 Months After Treatment (hepatitis B; Group 1, Pre-Treatment ALCT Activity None): 100%
Percent of Subjects Disease Free at 6 Months After Treatment (hepatitis B; Group 2, Pre-Treatment ALCT Activity Moderate): 80%
Percent of Subjects Disease Free at 6 Months After Treatment (hepatitis B; Group 3, Pre-Treatment ALCT Activity High): 0%
ALCT Cytotoxic Index (hepatitis B; [6]): 44.55 ± 6.8
ALCT: % of subjects (hepatitis B; [6]): 57.14 ± 18.7%
Ratio OKT4^+/OKT8^+ (hepatitis B; [6]): 0.82 ± 0.07
T-Lymphocytes (E-RFC) (hepatitis B; [6]): 1382 ± 76 ×10^9
T-Lymphocytes (E-RFC) % Normal Value (hepatitis B; [6]): (85%)
T-Lymphocytes (E-RFC) % of PBL (hepatitis B; [6]): 56.7 ± 3.24 % of PBL
ALCT Cytotoxic Index (hepatitis B; [7]): 50.4 ± 5.5
ALCT: % of subjects (hepatitis B; [7]): 16.7 ± 13.2%
Ratio OKT4^+/OKT8^+ (hepatitis B; [7]): 1.08 ± 0.07
T-Lymphocytes (E-RFC) (hepatitis B; [7]): 1227 ± 65 ×10^9
T-Lymphocytes (E-RFC) % Normal Value (hepatitis B; [7]): (76%)
T-Lymphocytes (E-RFC) % of PBL (hepatitis B; [7]): 47.33 ± 2.2 % of PBL
Stable remission over 6 months (hepatitis B; highest ALCT levels): 0%
Patients with increased E-RFC T-lymphocytes and ADCC decreased to normal (responders) (hepatitis B; in vivo): about 63%
Stable remission over 6 months (hepatitis B; moderate ALCT activity): 80%
Stable remission over 6 months (hepatitis B; patients lacking demonstrable ALCT): One hundred percent
Germ Tube (%) (C. albicans; 0.1 μg/kg ip): 35* %
Germ Tube (%) (C. albicans; 1 μg/kg ip): 34* %
Germ Tube (%) (C. albicans; 10 μg/kg ip): 35* %
Germ Tube (%) (C. albicans; 100 μg/kg ip): 26* %
Germ Tube (%) (C. albicans; 300 μg/kg ip): 37%
